Assay results reported in patent US12509447B2, “Small molecule compound” (Technoderma Medicines Pte Ltd, priority 2019, dated 2025).

Tests used:
Assay type in all cases: biochemical
[1] = target: Tyk2 (Homo sapiens, UniProt P29597); experiment: Inhibition of JAK kinase activity, EZ Reader microfluidic phosphorylation of peptide substrate: Tyk2; conditions: Tyk2 kinase 1 nM; highest final concentration 10 μM, 1:3 serial dilution, 8 points, duplicates
Procedure, shortened: (§1)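 Microfluidic mobility-shift assay reading fluorescent peptide substrate and product; kinases at 20 nM (JAK1) or 1 nM (JAK2, JAK3, Tyk2) in pH 7.4 HEPES with 10 mM MgCl2, run at room temperature to 20-30% conversion, then stopped with EDTA. Compounds tested from 10 μM top, 1:3 over 8 points in duplicate; IC50 fitted from % conversion.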

[2] = target: JAK1 (Homo sapiens, UniProt P23458); experiment: Inhibition of JAK kinase activity, EZ Reader microfluidic phosphorylation of peptide substrate: JAK1; conditions: JAK1 kinase 20 nM; highest final concentration 10 μM, 1:3 serial dilution, 8 points, duplicates
JAK1, sequence (P23458 whole entry): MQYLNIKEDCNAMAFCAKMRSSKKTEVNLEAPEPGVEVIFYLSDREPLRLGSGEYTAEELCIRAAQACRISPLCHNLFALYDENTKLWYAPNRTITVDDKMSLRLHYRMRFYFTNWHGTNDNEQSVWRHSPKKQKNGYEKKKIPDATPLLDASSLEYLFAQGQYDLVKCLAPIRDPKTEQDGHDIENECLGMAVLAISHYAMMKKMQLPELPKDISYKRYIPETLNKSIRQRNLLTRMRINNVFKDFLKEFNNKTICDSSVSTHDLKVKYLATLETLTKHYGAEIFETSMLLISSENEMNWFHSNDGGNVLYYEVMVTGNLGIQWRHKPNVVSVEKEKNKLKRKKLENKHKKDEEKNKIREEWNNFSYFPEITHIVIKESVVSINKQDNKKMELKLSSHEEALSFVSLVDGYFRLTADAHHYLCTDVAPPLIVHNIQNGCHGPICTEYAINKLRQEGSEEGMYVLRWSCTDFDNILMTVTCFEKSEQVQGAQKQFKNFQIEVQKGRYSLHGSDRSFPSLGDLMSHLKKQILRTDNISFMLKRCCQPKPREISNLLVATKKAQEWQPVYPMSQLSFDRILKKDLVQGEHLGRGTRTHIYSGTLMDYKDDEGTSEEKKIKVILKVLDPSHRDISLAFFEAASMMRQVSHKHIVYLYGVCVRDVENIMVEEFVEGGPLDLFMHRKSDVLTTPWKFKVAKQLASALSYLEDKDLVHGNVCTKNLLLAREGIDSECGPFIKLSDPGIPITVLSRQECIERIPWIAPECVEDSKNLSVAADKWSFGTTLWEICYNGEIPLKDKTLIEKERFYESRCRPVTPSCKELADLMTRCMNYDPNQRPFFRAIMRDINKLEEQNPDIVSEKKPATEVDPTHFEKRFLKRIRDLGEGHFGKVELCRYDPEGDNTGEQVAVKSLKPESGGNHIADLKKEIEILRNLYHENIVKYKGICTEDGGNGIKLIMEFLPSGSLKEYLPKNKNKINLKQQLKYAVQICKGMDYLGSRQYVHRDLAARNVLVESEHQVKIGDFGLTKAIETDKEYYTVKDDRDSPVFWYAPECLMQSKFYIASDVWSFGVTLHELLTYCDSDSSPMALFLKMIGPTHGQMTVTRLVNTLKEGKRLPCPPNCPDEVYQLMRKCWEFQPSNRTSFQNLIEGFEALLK
Procedure, shortened: as §1

[3] = target: JAK2 (Homo sapiens, UniProt O60674); experiment: Inhibition of JAK kinase activity, EZ Reader microfluidic phosphorylation of peptide substrate: JAK2; conditions: JAK2 kinase 1 nM; highest final concentration 10 μM, 1:3 serial dilution, 8 points, duplicates
JAK2, sequence (O60674 whole entry): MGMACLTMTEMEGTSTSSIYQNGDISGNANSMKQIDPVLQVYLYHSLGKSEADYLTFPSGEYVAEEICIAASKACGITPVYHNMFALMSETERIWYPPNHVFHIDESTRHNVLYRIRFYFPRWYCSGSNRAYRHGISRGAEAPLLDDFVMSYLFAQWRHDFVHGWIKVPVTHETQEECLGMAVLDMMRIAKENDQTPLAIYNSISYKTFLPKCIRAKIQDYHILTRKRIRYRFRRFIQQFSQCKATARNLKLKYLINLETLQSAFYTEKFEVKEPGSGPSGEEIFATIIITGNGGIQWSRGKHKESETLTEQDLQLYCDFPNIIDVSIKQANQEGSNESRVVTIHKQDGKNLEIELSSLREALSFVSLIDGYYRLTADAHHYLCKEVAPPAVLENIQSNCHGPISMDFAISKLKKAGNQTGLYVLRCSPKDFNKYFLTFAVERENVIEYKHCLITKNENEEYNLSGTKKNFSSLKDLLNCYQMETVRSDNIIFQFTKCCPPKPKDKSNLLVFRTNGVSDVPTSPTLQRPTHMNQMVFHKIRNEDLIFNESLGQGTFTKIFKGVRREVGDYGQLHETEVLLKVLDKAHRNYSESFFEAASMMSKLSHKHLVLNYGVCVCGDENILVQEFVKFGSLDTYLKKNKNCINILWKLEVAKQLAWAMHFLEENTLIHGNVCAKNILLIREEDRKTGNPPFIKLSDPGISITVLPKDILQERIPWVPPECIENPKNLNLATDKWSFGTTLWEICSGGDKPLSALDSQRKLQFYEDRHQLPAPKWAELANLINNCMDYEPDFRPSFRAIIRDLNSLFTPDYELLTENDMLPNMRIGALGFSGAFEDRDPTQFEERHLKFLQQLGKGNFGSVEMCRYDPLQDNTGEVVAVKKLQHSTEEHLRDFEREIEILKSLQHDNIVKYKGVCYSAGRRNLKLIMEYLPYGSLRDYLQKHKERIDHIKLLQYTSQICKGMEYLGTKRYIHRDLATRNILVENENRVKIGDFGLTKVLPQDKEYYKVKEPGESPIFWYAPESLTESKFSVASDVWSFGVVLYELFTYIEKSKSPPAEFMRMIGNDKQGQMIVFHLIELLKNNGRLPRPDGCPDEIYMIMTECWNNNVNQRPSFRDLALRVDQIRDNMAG
Procedure, shortened: as §1

[4] = target: T1, JAK3 (Homo sapiens, UniProt P52333); experiment: Inhibition of JAK kinase activity, EZ Reader microfluidic phosphorylation of peptide substrate: JAK3; conditions: JAK3 kinase 1 nM; highest final concentration 10 μM, 1:3 serial dilution, 8 points, duplicates
T1 sequence (P52333 1-1124): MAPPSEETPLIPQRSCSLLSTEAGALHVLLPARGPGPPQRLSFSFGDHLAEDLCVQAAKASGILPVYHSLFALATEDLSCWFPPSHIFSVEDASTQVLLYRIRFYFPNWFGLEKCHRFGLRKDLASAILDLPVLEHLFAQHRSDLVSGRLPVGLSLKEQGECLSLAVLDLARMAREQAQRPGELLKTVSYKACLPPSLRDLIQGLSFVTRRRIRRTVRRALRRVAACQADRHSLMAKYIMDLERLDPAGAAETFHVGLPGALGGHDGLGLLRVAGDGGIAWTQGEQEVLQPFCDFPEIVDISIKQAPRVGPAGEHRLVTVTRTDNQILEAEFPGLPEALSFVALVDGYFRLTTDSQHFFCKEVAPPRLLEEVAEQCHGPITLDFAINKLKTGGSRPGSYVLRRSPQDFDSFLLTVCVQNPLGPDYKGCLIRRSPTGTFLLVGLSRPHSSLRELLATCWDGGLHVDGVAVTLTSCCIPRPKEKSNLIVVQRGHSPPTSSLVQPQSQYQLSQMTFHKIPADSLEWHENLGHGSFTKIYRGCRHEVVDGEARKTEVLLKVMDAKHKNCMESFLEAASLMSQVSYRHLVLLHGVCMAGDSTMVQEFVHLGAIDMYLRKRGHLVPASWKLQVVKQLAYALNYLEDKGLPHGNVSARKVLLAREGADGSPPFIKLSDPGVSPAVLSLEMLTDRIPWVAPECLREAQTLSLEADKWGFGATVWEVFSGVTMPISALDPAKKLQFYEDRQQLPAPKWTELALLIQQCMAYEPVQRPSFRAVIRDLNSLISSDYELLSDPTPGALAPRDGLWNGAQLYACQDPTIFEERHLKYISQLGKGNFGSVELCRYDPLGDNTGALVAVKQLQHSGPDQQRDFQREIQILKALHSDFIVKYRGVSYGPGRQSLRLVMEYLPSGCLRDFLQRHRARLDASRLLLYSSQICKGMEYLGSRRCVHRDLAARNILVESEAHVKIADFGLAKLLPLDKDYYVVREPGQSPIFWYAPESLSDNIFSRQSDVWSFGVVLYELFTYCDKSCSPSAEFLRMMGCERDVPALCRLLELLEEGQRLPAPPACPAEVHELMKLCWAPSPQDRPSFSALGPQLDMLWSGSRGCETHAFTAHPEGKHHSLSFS
Procedure, shortened: as §1

Tyk2, sequence (P29597 whole entry): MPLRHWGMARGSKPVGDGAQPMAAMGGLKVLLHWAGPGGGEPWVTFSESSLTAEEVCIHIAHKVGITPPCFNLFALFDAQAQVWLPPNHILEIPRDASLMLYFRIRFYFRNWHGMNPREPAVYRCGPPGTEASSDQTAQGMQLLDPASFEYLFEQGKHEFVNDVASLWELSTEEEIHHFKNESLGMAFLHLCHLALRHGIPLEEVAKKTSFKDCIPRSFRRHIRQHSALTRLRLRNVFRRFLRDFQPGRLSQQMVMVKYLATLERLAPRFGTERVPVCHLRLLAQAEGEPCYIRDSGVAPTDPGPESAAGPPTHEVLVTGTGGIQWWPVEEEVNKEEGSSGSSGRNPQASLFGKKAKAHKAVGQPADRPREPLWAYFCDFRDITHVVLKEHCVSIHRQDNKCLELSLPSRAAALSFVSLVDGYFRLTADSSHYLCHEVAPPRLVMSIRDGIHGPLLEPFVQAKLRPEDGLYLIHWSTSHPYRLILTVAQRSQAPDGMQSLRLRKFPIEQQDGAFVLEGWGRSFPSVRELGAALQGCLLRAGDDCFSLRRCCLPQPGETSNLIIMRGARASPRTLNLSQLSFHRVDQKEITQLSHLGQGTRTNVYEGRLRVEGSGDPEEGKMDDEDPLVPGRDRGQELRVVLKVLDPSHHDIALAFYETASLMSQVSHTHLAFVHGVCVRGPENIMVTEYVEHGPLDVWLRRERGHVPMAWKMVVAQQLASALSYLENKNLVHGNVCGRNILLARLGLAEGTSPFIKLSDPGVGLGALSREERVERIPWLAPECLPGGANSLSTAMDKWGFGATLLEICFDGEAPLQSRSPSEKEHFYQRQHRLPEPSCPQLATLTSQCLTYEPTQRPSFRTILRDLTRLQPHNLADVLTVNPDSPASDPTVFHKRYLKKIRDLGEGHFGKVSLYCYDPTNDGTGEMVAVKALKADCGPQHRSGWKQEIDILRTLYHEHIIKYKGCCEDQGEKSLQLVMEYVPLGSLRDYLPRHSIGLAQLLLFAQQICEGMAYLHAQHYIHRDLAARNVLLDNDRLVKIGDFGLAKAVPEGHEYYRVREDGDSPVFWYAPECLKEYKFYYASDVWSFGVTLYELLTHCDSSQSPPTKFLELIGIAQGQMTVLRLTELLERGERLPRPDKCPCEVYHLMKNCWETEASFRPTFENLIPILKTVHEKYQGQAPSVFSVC

Compound	IC50 [1] [µM]	IC50 [2] [µM]	IC50 [3] [µM]	IC50 [4] [µM]
CC(=O)N1CCN(c2ccc(-c3ccnc(Nc4cnn(C)c4)n3)cc2)CC1 [TDM-180827, 1-(4-(4-(2-((1-methyl-1H-pyrazol-4-yl)amino)pyrimidin-4-yl)phenyl)piperazin-1-yl)ethan-1-one]	1 to 10	1 to 10	0.1 to 1	≥ 10
CN1CCN(c2ccc(-c3ccnc(Nc4cnn(C)c4)n3)cc2)CC1 [TDM-180828, N-(1-methyl-1H-pyrazol-4-yl)-4-(4-(4-methylpiperazin-1-yl)phenyl)pyrimidin-2-amine]	1 to 10	1 to 10	1 to 10	≥ 10
Cn1cc(Nc2nccc(-c3ccn(C4(CC#N)CN(S(=O)(=O)C5CCOCC5)C4)c3)n2)cn1 [TDM-180855, 2-(3-(3-(2-((1-methyl-1H-pyrazol-4-yl)amino)pyrimidin-4-yl)-1H-pyrrol-1-yl)-1-((tetrahydro-2H-pyran-4-yl)sulfonyl)azetidin-3-yl)acetonitrile]	0.1 to 1	0.1 to 1	0.1 to 1	1 to 10

Second part, the compound after the results:

IC50 [1] [µM]	IC50 [2] [µM]	IC50 [3] [µM]	IC50 [4] [µM]	Compound
0.1 to 1	0.1 to 1	0.1 to 1	1 to 10	Cn1cc(Nc2nccc(-c3cnn(C4(CC#N)CN(S(=O)(=O)CCC(F)(F)F)C4)c3)n2)cn1 [TDM-180808, 2-(3-(4-(2-((1-methyl-1H-pyrazol-4-yl)amino)pyrimidin-4-yl)-1H-pyrazol-1-yl)-1-((3,3,3-trifluoropropyl)sulfonyl)azetidin-3-yl)acetonitrile]
0.1 to 1	0.1 to 1	< 0.1	1 to 10	Cn1cc(Nc2nccc(-c3ccn(C4(CC#N)CN(S(=O)(=O)CCCF)C4)c3)n2)cn1 [TDM-180854, 2-(1-((3-fluoropropyl)sulfonyl)-3-(3-(2-((1-methyl-1H-pyrazol-4-yl)amino)pyrimidin-4-yl)-1H-pyrrol-1-yl)azetidin-3-yl)acetonitrile]
